Key:
VIM-2 = VIM-2 (Escherichia coli, UniProt Q5U7L7); test: biochemical; details: CCF2-FA fluorescence assay; read-out: VIM2 IC50
[1] = system: P. aeruginosa MB9798 (efflux+, IMP-1 plasmid); details: for MB9798 MITC95 P. aeruginosa uM Efflux WT: efflux + (MB9798) strain, imipenem at 2 μg/mL, in the presence of a class A, C, D serine β-lactamase inhibitor closely related to relebactam; for Efflux ratio: fold difference between efflux+ (MB9798) and efflux− (MB9799) strains
In short: (§1)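 Isogenic P. aeruginosa PAO1 strains (efflux+ and multiple-efflux-pump-disrupted) carrying plasmid IMP-1, with inducible AmpC, tested by broth microdilution. Imipenem and/or ceftazidime fixed, usually at CLSI breakpoint, plus fixed class A/C β-lactamase inhibitor; titrated MBL inhibitor concentration restoring susceptibility recorded and compared between strains as efflux fold difference.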

[2] = system: P. aeruginosa MB9799 (efflux-, IMP-1 plasmid); type: cell-based, Pseudomonas aeruginosa; details: efflux − (MB9799) strain; imipenem at 2 μg/mL; in the presence of a class A, C, D serine β-lactamase inhibitor closely related to relebactam
In short: as §1

[3] = system: Escherichia coli expressing NDM-1 (CLB30016); type: cell-based; details: with imipenem 1 μg/ml; 95% inhibition of bacterial growth
In short: (§2)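 Synergy with imipenem at a fixed 1 μg/ml was scored by absorbance following 22–24 h incubation at 35 °C; the potentiating concentration (MITC95) was the lowest giving 95% growth inhibition.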

[4] = system: Klebsiella pneumoniae expressing VIM-1 (IHMA599644); type: cell-based; details: with imipenem 1 μg/ml; 95% inhibition of bacterial growth
In short: as §2

[5] = system: Serratia marcescens expressing IMP-1 (CL5741); type: cell-based; details: with imipenem 1 μg/ml; 95% inhibition of bacterial growth
In short: as §2

NDM-1 = NDM-1 (Klebsiella pneumoniae, UniProt C7C422); test: biochemical; type: biochemical; details: CCF2-FA fluorescence assay, 2 hours at 25° C.
Chain of NDM-1 (C7C422 whole entry, looked up, species assumed): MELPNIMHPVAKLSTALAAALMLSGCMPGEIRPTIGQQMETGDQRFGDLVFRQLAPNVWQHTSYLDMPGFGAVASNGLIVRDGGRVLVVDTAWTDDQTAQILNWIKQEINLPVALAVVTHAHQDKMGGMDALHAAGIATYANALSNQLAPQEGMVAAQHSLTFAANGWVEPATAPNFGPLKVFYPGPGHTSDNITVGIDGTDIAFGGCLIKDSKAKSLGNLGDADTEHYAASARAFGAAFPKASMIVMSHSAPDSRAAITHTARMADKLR
In short: (§3)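 IC50s come from 4-parameter fits of inhibition versus inhibitor concentration, tested from 20 μM down to 0.00063 μM. Enzyme, CCF2-FA (1.25 μM) and inhibitor react 2 h at 25° C, pH 7, with 10 μM ZnSO4 and 0.005% Tween-20.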

VIM-1 = VIM-1 (Pseudomonas aeruginosa (strain ATCC 15692 / DSM 22644 / CIP 104116 / JCM 14847 / LMG 12228 / 1C / PRS 101 / PAO1), UniProt A0A0F7KYQ8); test: biochemical; details: CCF2-FA fluorescence assay, 2 hours at 25° C.; read-out: VIM1 IC50
In short: as §3

IMP-1 = IMP-1 (Serratia marcescens, UniProt P52699); test: biochemical; details: CCF2-FA fluorescence assay, 2 hours at 25° C.; read-out: IMP1 IC50
Chain of IMP-1 (P52699 whole entry, looked up, species assumed): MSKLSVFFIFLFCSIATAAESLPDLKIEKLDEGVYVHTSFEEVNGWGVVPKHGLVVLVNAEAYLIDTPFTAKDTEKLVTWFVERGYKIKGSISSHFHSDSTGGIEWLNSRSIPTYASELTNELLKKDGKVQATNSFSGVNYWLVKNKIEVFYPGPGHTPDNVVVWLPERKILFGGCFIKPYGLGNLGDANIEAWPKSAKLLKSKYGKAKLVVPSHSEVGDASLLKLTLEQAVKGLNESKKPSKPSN
In short: as §3

Compound: NS(=O)(=O)c1c(S(=O)(=O)N[C@@H]2CCNC2)ccc(N2CCN(CCO)CC2)c1-c1nn[nH]n1 [Example 162, (R)-4-(4-(2-hydroxyethyl)piperazin-1-yl)-N1-(pyrrolidin-3-yl)-3-(2H-tetrazol-5-yl)benzene-1,2-disulfonamide]
- IC50 (VIM-2): 6330 pM
- MB9798 MITC95 P. aeruginosa uM Efflux WT [1]: 2.34 µM
- MB9799 MITC95 P. aeruginosa uM Efflux Mutant [2]: 1.17 µM
- CLB30016 E. coli MITC95 NDM [3]: 0.29 µM
- IHMA599644 K. pneumoniae MITC95 VIM [4]: 1.95 µM
- CL5741 S. marcescens MITC95 IMP [5]: 0.20 µM
- IC50 (NDM-1): 1200 pM
- IC50 (VIM-1): 2450 pM
- IC50 (IMP-1): 2170 pM

Compound: COC(=O)C1CCN(c2ccc(S(=O)(=O)N[C@@H]3CCNC3)c(S(N)(=O)=O)c2-c2nn[nH]n2)CCN1.Cl (stereo partly drawn) [Example 164, Methyl 1-(4-(N-((R)-pyrrolidin-3-yl)sulfamoyl)-3-sulfamoyl-2-(2H-tetrazol-5-yl)phenyl)-1,4-diazepane-5-carboxylate hydrochloride]
- IC50 (VIM-2): 690 pM
- MB9798 MITC95 P. aeruginosa uM Efflux WT [1]: 6.25 µM
- Efflux ratio [1]: 2.00
- MB9799 MITC95 P. aeruginosa uM Efflux Mutant [2]: 3.13 µM
- CLB30016 E. coli MITC95 NDM [3]: 0.39 µM
- IHMA599644 K. pneumoniae MITC95 VIM [4]: 3.13 µM
- CL5741 S. marcescens MITC95 IMP [5]: 1.56 µM
- IC50 (NDM-1): 630 pM
- IC50 (VIM-1): 120 pM
- IC50 (IMP-1): 540 pM

Compound: NC(=O)C1CCN(c2ccc(S(=O)(=O)N[C@@H]3CCNC3)c(S(N)(=O)=O)c2-c2nn[nH]n2)CCN1 (stereo partly drawn) [Example 165, 1-(4-(N-((R)-pyrrolidin-3-yl)sulfamoyl)-3-sulfamoyl-2-(2H-tetrazol-5-yl)phenyl)-1,4-diazepane-5-carboxamide]
- IC50 (VIM-2): 2350 pM
- MB9798 MITC95 P. aeruginosa uM Efflux WT [1]: 1.56 µM
- Efflux ratio [1]: 2.00
- MB9799 MITC95 P. aeruginosa uM Efflux Mutant [2]: 0.78 µM
- CLB30016 E. coli MITC95 NDM [3]: 0.20 µM
- IHMA599644 K. pneumoniae MITC95 VIM [4]: 1.56 µM
- CL5741 S. marcescens MITC95 IMP [5]: 0.20 µM
- IC50 (NDM-1): 1210 pM
- IC50 (VIM-1): 380 pM
- IC50 (IMP-1): 2430 pM

Compound: NS(=O)(=O)c1c(S(=O)(=O)N[C@@H]2CCNC2)ccc(N2CCC(c3c[nH]cn3)CC2)c1-c1nn[nH]n1 [Example 166, (R)-4-(4-(1H-imidazol-4-yl)piperidin-1-yl)-N1-(pyrrolidin-3-yl)-3-(2H-tetrazol-5-yl)benzene-1,2-disulfonamide]
- IC50 (VIM-2): 530 pM
- MB9798 MITC95 P. aeruginosa uM Efflux WT [1]: 0.78 µM
- Efflux ratio [1]: 1.00
- MB9799 MITC95 P. aeruginosa uM Efflux Mutant [2]: 0.78 µM
- CLB30016 E. coli MITC95 NDM [3]: 0.78 µM
- IHMA599644 K. pneumoniae MITC95 VIM [4]: 1.56 µM
- CL5741 S. marcescens MITC95 IMP [5]: 0.78 µM
- IC50 (NDM-1): 120 pM
- IC50 (VIM-1): 90 pM
- IC50 (IMP-1): 220 pM

Compound: NCCNS(=O)(=O)C1CCN(c2ccc(S(=O)(=O)N[C@@H]3CCNC3)c(S(N)(=O)=O)c2-c2nn[nH]n2)CC1 [Example 167, (R)-4-(4-(N-(2-aminoethyl)sulfamoyl)piperidin-1-yl)-N1-(pyrrolidin-3-yl)-3-(2H-tetrazol-5-yl)benzene-1,2-disulfonamide]
- IC50 (VIM-2): 400 pM
- MB9798 MITC95 P. aeruginosa uM Efflux WT [1]: 0.78 µM
- Efflux ratio [1]: 1.00
- MB9799 MITC95 P. aeruginosa uM Efflux Mutant [2]: 0.78 µM
- CLB30016 E. coli MITC95 NDM [3]: 1.17 µM
- IHMA599644 K. pneumoniae MITC95 VIM [4]: 1.56 µM
- CL5741 S. marcescens MITC95 IMP [5]: 1.17 µM
- IC50 (NDM-1): 250 pM
- IC50 (VIM-1): 50 pM
- IC50 (IMP-1): 250 pM

Compound: NC[C@H](N)CNS(=O)(=O)c1ccc(N2CCC(c3c[nH]cn3)CC2)c(-c2nn[nH]n2)c1S(N)(=O)=O [Example 168, (S)-4-(4-(1H-imidazol-4-yl)piperidin-1-yl)-N1-(2,3-diaminopropyl)-3-(2H-tetrazol-5-yl)benzene-1,2-disulfonamide]
- IC50 (VIM-2): 480 pM
- MB9798 MITC95 P. aeruginosa uM Efflux WT [1]: 1.56 µM
- Efflux ratio [1]: 2.00
- MB9799 MITC95 P. aeruginosa uM Efflux Mutant [2]: 0.78 µM
- CLB30016 E. coli MITC95 NDM [3]: 0.39 µM
- IHMA599644 K. pneumoniae MITC95 VIM [4]: 1.56 µM
- CL5741 S. marcescens MITC95 IMP [5]: 0.78 µM
- IC50 (NDM-1): 170 pM
- IC50 (VIM-1): 70 pM
- IC50 (IMP-1): 240 pM

Compound: NC[C@@H](O)CNS(=O)(=O)c1ccc(N2CCC(c3c[nH]cn3)CC2)c(-c2nnn[nH]2)c1S(N)(=O)=O [Example 169, (R)-4-(4-(1H-imidazol-4-yl)piperidin-1-yl)-N1-(3-amino-2-hydroxypropyl)-3-(1H-tetrazol-5-yl)benzene-1,2-disulfonamide]
- IC50 (VIM-2): 400 pM
- MB9798 MITC95 P. aeruginosa uM Efflux WT [1]: 0.78 µM
- Efflux ratio [1]: 1.00
- MB9799 MITC95 P. aeruginosa uM Efflux Mutant [2]: 0.78 µM
- CLB30016 E. coli MITC95 NDM [3]: 0.39 µM
- IHMA599644 K. pneumoniae MITC95 VIM [4]: 2.34 µM
- CL5741 S. marcescens MITC95 IMP [5]: 1.17 µM
- IC50 (NDM-1): 230 pM
- IC50 (VIM-1): 100 pM
- IC50 (IMP-1): 260 pM

Compound: NCC1=CCN(c2ccc(S(=O)(=O)NC[C@H](O)CN)c(S(N)(=O)=O)c2-c2nn[nH]n2)C1.O=C(O)C(F)(F)F.O=C(O)C(F)(F)F [Example 170]
- IC50 (VIM-2): 42900 pM
- MB9798 MITC95 P. aeruginosa uM Efflux WT [1]: 6.25 µM
- Efflux ratio [1]: 4.00
- MB9799 MITC95 P. aeruginosa uM Efflux Mutant [2]: 1.56 µM
- CLB30016 E. coli MITC95 NDM [3]: 1.56 µM
- IHMA599644 K. pneumoniae MITC95 VIM [4]: 1.56 µM
- CL5741 S. marcescens MITC95 IMP [5]: 1.56 µM
- IC50 (NDM-1): 11400 pM
- IC50 (VIM-1): 5640 pM
- IC50 (IMP-1): 15300 pM

Compound: NC[C@@H](O)CNS(=O)(=O)c1ccc(N2CCC3(CC2)CNC(N)=N3)c(-c2nn[nH]n2)c1S(N)(=O)=O [Example 171, (R)—N1-(3-amino-2-hydroxypropyl)-4-(2-amino-1,3,8-triazaspiro [4.5]dec-1-en-8-yl)-3-(2H-tetrazol-5-yl)benzene-1,2-disulfonamide]
- IC50 (VIM-2): 27800 pM
- MB9798 MITC95 P. aeruginosa uM Efflux WT [1]: 0.78 µM
- Efflux ratio [1]: 2.00
- MB9799 MITC95 P. aeruginosa uM Efflux Mutant [2]: 0.39 µM
- CLB30016 E. coli MITC95 NDM [3]: 0.39 µM
- IHMA599644 K. pneumoniae MITC95 VIM [4]: 0.78 µM
- CL5741 S. marcescens MITC95 IMP [5]: 0.78 µM
- IC50 (NDM-1): 3380 pM
- IC50 (VIM-1): 920 pM
- IC50 (IMP-1): 7390 pM

Compound: NCC1C2CCC1CN(c1ccc(S(=O)(=O)NC[C@H](O)CN)c(S(N)(=O)=O)c1-c1nn[nH]n1)C2 (stereo partly drawn) [Example 172, N1-((R)-3-amino-2-hydroxypropyl)-4-((1R,5S,8R)-8-(aminomethyl)-3-azabicyclo[3.2.1]octan-3-yl)-3-(2H-tetrazol-5-yl)benzene-1,2-disulfonamide]
- IC50 (VIM-2): 3780 pM
- MB9798 MITC95 P. aeruginosa uM Efflux WT [1]: 1.17 µM
- Efflux ratio [1]: 1.00
- MB9799 MITC95 P. aeruginosa uM Efflux Mutant [2]: 1.17 µM
- CLB30016 E. coli MITC95 NDM [3]: 1.17 µM
- IHMA599644 K. pneumoniae MITC95 VIM [4]: 2.34 µM
- CL5741 S. marcescens MITC95 IMP [5]: 2.34 µM
- IC50 (NDM-1): 2150 pM
- IC50 (VIM-1): 660 pM
- IC50 (IMP-1): 3490 pM

Compound: CC1(C)CN(c2ccc(S(=O)(=O)NC[C@H](O)CN)c(S(N)(=O)=O)c2-c2nn[nH]n2)CCN1CCO [Example 173, (R)-N1-(3-amino-2-hydroxypropyl)-4-(4-(2-hydroxyethyl)-3,3-dimethylpiperazin-1-yl)-3-(2H-tetrazol-5-yl)benzene-1,2-disulfonamide]
- IC50 (VIM-2): 114000 pM
- MB9798 MITC95 P. aeruginosa uM Efflux WT [1]: 6.25 µM
- Efflux ratio [1]: 4.00
- MB9799 MITC95 P. aeruginosa uM Efflux Mutant [2]: 1.56 µM
- CLB30016 E. coli MITC95 NDM [3]: 1.56 µM
- IHMA599644 K. pneumoniae MITC95 VIM [4]: 6.25 µM
- CL5741 S. marcescens MITC95 IMP [5]: 3.13 µM
- IC50 (NDM-1): 19800 pM
- IC50 (VIM-1): 13700 pM
- IC50 (IMP-1): 10500 pM

Compound: NC[C@@H](O)CNS(=O)(=O)c1ccc(N2CCC(n3ccnc3)CC2)c(-c2nnn[nH]2)c1S(N)(=O)=O [Example 174, (R)-4-(4-(1H-imidazol-1-yl)piperidin-1-yl)-N1-(3-amino-2-hydroxypropyl)-3-(2H-tetrazol-5-yl)benzene-1,2-disulfonamide]
- IC50 (VIM-2): 220 pM
- MB9798 MITC95 P. aeruginosa uM Efflux WT [1]: 3.13 µM
- Efflux ratio [1]: 2.00
- MB9799 MITC95 P. aeruginosa uM Efflux Mutant [2]: 1.56 µM
- CLB30016 E. coli MITC95 NDM [3]: 0.78 µM
- IHMA599644 K. pneumoniae MITC95 VIM [4]: 3.13 µM
- CL5741 S. marcescens MITC95 IMP [5]: 0.78 µM
- IC50 (NDM-1): 690 pM
- IC50 (VIM-1): 70 pM
- IC50 (IMP-1): 360 pM

— patent US11207312B2, “Metallo-beta-lactamase inhibitors and methods of use thereof” (priority 2017, dated 2021)
